Holding throughout (assay type): in vitro ADME
For one data set, the target named is T1, CYP3A4 (Homo sapiens, UniProt P08684).
T1 construct: enzyme, pooled human hepatic microsome 0.2 mg protein/mL; from tissue; host or cells: pooled human liver microsomes
The data set is described as follows: CYP inhibition assay, terfenedine hydroxylation. The following applies: pooled human liver microsomes, probe terfenedine (hydroxylation), 1 μmol/L, pooled human hepatic microsome. The protocol:
(§1) Using commercially available pooled human hepatic microsome, and employing, as markers, 7-ethoxyresorufin O-deethylation (CYP1A2), tolbutamide methyl-hydroxylation (CYP2C9), mephenytoin 4′-hydroxylation (CYP2C19), dextromethorphan O-demethylation (CYP2D6), and terfenedine hydroxylation (CYP3A4) as typical substrate metabolism reactions of human main five CYP enzyme forms (CYP1A2, 2C9, 2C19, 2D6, 3A4), an inhibitory degree of each metabolite production amount by a test compound was assessed.
(§2) The reaction conditions were as follows: substrate, 0.5 μmol/L ethoxyresorufin (CYP1A2), 100 μmol/L tolbutamide (CYP2C9), 50 μmol/L S-mephenytoin (CYP2C19), 5 μmol/L dextromethorphan (CYP2D6), 1 μmol/L terfenedine (CYP3A4); reaction time, 15 minutes; reaction temperature, 37° C.; enzyme, pooled human hepatic microsome 0.2 mg protein/mL; test drug concentration, 1, 5, 10, 20 μmol/L (four points).
(§3) Each five kinds of substrates, human hepatic microsome, and a test drug in 50 mmol/L Hepes buffer as a reaction solution was added to a 96-well plate as the composition as described above, NADPH, as a cofactor was added to initiate metabolism reactions as markers and, after the incubation at 37° C. for 15 minutes, a methanol/acetonitrile=1/1 (v/v) solution was added to stop the reaction. After the centrifugation at 3000 rpm for 15 minutes, resorufin (CYP1A2 metabolite) in the supernatant was quantified by a fluorescent multilabel counter and tolbutamide hydroxide (CYP2C9 metabolite), mephenytoin 4′ hydroxide (CYP2C19 metabolite), dextrorphan (CYP2D6 metabolite), and terfenadine alcohol (CYP3A4 metabolite) were quantified by LC/MS/MS.
(§4) A reaction system containing only DMSO which is a solvent for dissolving a drug was adopted as a control (100%), and the remaining activity (%) was calculated, then IC50 was calculated by reverse presumption with a logistic model using a concentration and an inhibition rate.
For orientation: Liver microsomes are vesicles of endoplasmic reticulum, rich in cytochrome P450 enzymes.

Data set [1] in a line: Metabolism stability test, human liver microsomes. Conditions: 30 minutes, 37° C., amount at 0 minute = 100%. The protocol:
Commercially available pooled human hepatic microsomes and a test compound were reacted for a constant time, then a remaining rate was calculated by comparing a reacted sample and an unreacted sample, thereby a degree of metabolism of the test compound in liver was assessed. A reaction was performed (oxidative reaction) at 37° C. for 0 minute or 30 minutes in the presence of 1 mmol/L NADPH in 0.2 mL of a buffer (50 mmol/L Tris-HCl, pH 7.4, 150 mmol/L potassium chloride, 10 mmol/L magnesium chloride) containing 0.5 mg protein/mL of human liver microsomes. After the reaction, 50 μl, of the reaction solution was added to 100 μL of a methanol/acetonitrile=1/1 (v/v), mixed and centrifuged at 3000 rpm for 15 minutes. The test compound in the supernatant was quantified by LC/MS/MS, and a remaining amount of the test compound after the reaction was calculated, letting a compound amount at 0 minute reaction time to be 100%. Hydrolysis reaction was performed in the absence of NADPH and glucuronidation reaction was in the presence of 5 mM UDP-glucuronic acid in place of NADPH, followed by similar operations.

Data set [2] is described as follows: Metabolism stability test, rat liver microsomes. Conditions: amount at 0 minute = 100%.
Another data set addresses T2, CYP2D6 (Homo sapiens, UniProt P10635).
T2 construct: enzyme, pooled human hepatic microsome 0.2 mg protein/mL; from tissue; host or cells: pooled human liver microsomes
The experiment in a line: CYP inhibition assay, dextromethorphan O-demethylation. Conditions: pooled human liver microsomes, probe dextromethorphan (O-demethylation), 5 μmol/L, pooled human hepatic microsome. The protocol: as §1, §2, §3, §4

Structures are written as SMILES.

T1 sequence (P08684 whole entry): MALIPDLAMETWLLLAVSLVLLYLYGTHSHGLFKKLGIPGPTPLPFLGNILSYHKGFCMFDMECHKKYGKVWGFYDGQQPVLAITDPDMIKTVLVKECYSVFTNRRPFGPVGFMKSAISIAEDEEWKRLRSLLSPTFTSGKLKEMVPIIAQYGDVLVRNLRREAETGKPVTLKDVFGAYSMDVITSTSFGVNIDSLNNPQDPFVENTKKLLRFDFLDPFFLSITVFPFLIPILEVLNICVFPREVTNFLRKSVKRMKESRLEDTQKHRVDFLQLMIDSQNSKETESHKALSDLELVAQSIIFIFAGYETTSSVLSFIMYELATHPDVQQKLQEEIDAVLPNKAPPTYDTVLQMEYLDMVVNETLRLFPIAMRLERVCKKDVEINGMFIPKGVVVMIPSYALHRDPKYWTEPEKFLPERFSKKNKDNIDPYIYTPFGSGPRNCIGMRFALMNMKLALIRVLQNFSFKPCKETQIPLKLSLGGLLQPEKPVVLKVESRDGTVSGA
T2 sequence (P10635 whole entry): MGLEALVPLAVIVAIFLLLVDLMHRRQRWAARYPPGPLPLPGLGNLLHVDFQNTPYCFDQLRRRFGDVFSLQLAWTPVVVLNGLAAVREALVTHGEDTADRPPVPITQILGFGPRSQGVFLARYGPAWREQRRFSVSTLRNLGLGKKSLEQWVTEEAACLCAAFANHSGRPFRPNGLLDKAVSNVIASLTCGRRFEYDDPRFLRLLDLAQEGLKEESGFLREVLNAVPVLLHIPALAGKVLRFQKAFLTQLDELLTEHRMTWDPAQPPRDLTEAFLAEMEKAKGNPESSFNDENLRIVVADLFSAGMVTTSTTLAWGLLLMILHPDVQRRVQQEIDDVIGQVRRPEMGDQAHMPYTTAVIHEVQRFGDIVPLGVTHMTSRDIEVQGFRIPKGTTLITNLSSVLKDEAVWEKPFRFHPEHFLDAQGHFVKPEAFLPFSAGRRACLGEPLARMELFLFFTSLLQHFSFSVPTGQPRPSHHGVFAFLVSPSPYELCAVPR

As a reminder, the IC50 is the concentration that inhibits the measured activity by half. A low value points to greater potency. Take `CC(=O)Nc1c(C)c(C(OC(C)(C)C)C(=O)O)c(-c2ccc(C)c(C)c2)c(C)c1-c1ccc(C)c(C)c1` (stereo not shown) [Compound I-6]: the IC50 at 15 min against CYP3A4 and on CYP2D6 was at least 20 µM in each case. Also, in data set [1], the “remaining amount of compound in liver microsomes of human” value came out at 79%. Also, the “remaining amount of compound in liver microsomes of rat” value in data set [2] is 58%.
